Literature values in patent US9950023B1, “Composition for the treatment of acne” (Parham Tabibian, MD, Inc., priority 2014, dated 2018).

Key:
P. acnes biofilm = conditions: clinical tests, trans Resveratrol extracts
interleukin-8 (IL-8) = conditions: dose-dependent manner
[1] = system: biofilm-associated P. acnes; conditions: in vitro; concentrations as given in the label

SMILES: Oc1ccc(C=Cc2cc(O)cc(O)c2)cc1 [Resveratrol]
- inhibition of P. acnes biofilm formation (P. acnes biofilm): 99.2%

SMILES: NC(=O)c1cccnc1 [Nicotinamide]
- interleukin-8 (IL-8) production (interleukin-8 (IL-8)): decreasing interleukin-8 (IL-8) production in a dose-dependent manner

SMILES: Oc1cc(Cl)ccc1Oc1ccc(Cl)cc1Cl [0.1% triclosan, triclosan]
- reducing biofilm mass [1]: effective
